Here are results for 27 compounds from patent US9200008B2 (ASKA PHARMACEUTICAL CO., LTD., priority 2010, dated 2015).

This experiment concerns Human prostate cancer cell lines (PC-3 cells). Description: Measurement of cell death-inducing activity (Test Example 1). In kind it is cell-based. Particulars: PC-3, 48 h, 48 hours after addition, tested at 10, 1, 0.1, 0.025 and 0.00625 μmol/L, qualitative evaluation of 10 fields, read-out: Concentration showing the cell death-inducing activity (cell death-inducing rate not less than 40%). The procedure, abridged: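 Compound treatment lasted 48 h at 10 to 0.00625 μmol/L (five levels, DMSO as control) on PC-3 cells pre-cultured 48 h at 37 °C, 5% CO2 after seeding at 1×10^5 cells/well. A cell death-inducing rate of 40% or more counted as active.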
Turning to `COc1ccc(-c2cc(NC(=O)OCc3ccc4c(c3)ncn4C)n(C)n2)cc1OC` [Example 9-231], the minimal effective concentration came to 1 µM.
For `Cc1ccc(-c2cc(NC(=O)OCc3ccc4c(c3)ncn4C)n(C)n2)c(C)c1` [Example 9-233] the value was 0.00625 µM; for `CCn1nc(-c2ccc(C)cc2C)cc1NC(=O)OCc1ccc2c(c1)ncn2C` [Example 9-234], 0.025 µM; for `CCn1cnc2cc(COC(=O)Nc3cc(-c4ccc(C)cc4C)nn3C)ccc21` [Example 9-235], 0.00625 µM.
Take `CCn1nc(-c2ccc(C)cc2C)cc1NC(=O)OCc1ccc2c(c1)ncn2CC` [Example 9-236]: the minimal effective concentration worked out at 0.1 µM.
Take `Cc1ccccc1-c1cc(NC(=O)OCc2ccc3c(c2)nc(C)n3C)n(C)n1` [Example 9-238]: the minimal effective concentration came out at 10 µM.
As to `COc1cc(Cl)ccc1-c1cc(NC(=O)OCc2ccc3c(c2)nc(C)n3C)n(C)n1` [Example 9-239], the minimal effective concentration came out at 0.025 µM.
For `CCn1nc(-c2ccc(C)cc2C)cc1NC(=O)OCc1ccc2c(c1)nc(C)n2C` [Example 9-240], the minimal effective concentration was 1 µM.
For `CCc1nc2cc(COC(=O)Nc3cc(-c4ccc(Cl)cc4Cl)nn3C)ccc2n1C` [Example 9-241], the minimal effective concentration amounted to 10 µM.
Take `CCc1nc2cc(COC(=O)Nc3cc(-c4ccc(Cl)cc4OC)nn3C)ccc2n1C` [Example 9-242]: the minimal effective concentration is 0.1 µM.
Turning to `COc1ccccc1-c1cc(NC(=O)OCc2ccc3c(c2)nc2n3CCOC2)n(C)n1` [Example 9-243], the minimal effective concentration came out at 0.1 µM.
On to `CCn1nc(-c2ccccc2OC)cc1NC(=O)OCc1ccc2c(c1)nc1n2CCOC1` [Example 9-244], for which the minimal effective concentration came to 1 µM.
Take `COc1cc(F)ccc1-c1cc(NC(=O)OCc2ccc3c(c2)nc2n3CCOC2)n(C)n1` [Example 9-245]: the minimal effective concentration amounted to 0.025 µM.
In the case of `CCn1nc(-c2ccc(F)cc2OC)cc1NC(=O)OCc1ccc2c(c1)nc1n2CCOC1` [Example 9-246] it was 0.1 µM; in that of `COc1cc(Cl)ccc1-c1cc(NC(=O)OCc2ccc3c(c2)nc2n3CCOC2)n(C)n1` [Example 9-247], 0.00625 µM; in that of `CCn1nc(-c2ccc(Cl)cc2OC)cc1NC(=O)OCc1ccc2c(c1)nc1n2CCOC1` [Example 9-248], 0.025 µM.
In the case of `COc1cc(C)ccc1-c1cc(NC(=O)OCc2ccc3c(c2)nc2n3CCOC2)n(C)n1` [Example 9-249], the minimal effective concentration came to 0.00625 µM.
Take `CCn1nc(-c2ccc(C)cc2OC)cc1NC(=O)OCc1ccc2c(c1)nc1n2CCOC1` [Example 9-250]: the minimal effective concentration came out at 0.025 µM.
With `Cc1ccc(-c2cc(NC(=O)OCc3ccc4c(c3)nc3n4CCOC3)n(C)n2)c(C)c1` [Example 9-251], the minimal effective concentration is 0.025 µM.
Consider `CCn1nc(-c2ccc(C)cc2C)cc1NC(=O)OCc1ccc2c(c1)nc1n2CCOC1` [Example 9-252], for which the minimal effective concentration is 0.1 µM.
As to `Cc1cc(F)ccc1-c1cc(NC(=O)OCc2ccc3c(c2)nc2n3CCOC2)n(C)n1` [Example 9-253], the minimal effective concentration worked out at 0.1 µM.
Consider `COc1ccccc1-c1cc(NC(=O)OCc2ccc3c(c2)nc2n3CCC2)n(C)n1` [Example 9-254], for which the minimal effective concentration amounted to 1 µM.
For `CCn1nc(-c2ccccc2OC)cc1NC(=O)OCc1ccc2c(c1)nc1n2CCC1` [Example 9-255], the minimal effective concentration came out at 1 µM.
Regarding `COc1cc(F)ccc1-c1cc(NC(=O)OCc2ccc3c(c2)nc2n3CCC2)n(C)n1` [Example 9-256], the minimal effective concentration amounted to 0.1 µM.
For the compound `CCn1nc(-c2ccc(F)cc2OC)cc1NC(=O)OCc1ccc2c(c1)nc1n2CCC1` [Example 9-257], the minimal effective concentration came out at 0.1 µM.
`COc1cc(Cl)ccc1-c1cc(NC(=O)OCc2ccc3c(c2)nc2n3CCC2)n(C)n1` [Example 9-258]: the minimal effective concentration was found to be 0.025 µM.
Take `CCn1nc(-c2ccc(Cl)cc2OC)cc1NC(=O)OCc1ccc2c(c1)nc1n2CCC1` [Example 9-259]: the minimal effective concentration is 0.025 µM.
